Laboratory results taken from patent US10035799B2, “COMT inhibiting methods and compositions” (Lieber Institute for Brain Development, priority 2015, dated 2018).

target: T1, catechol-O-methyltransferase (COMT) (Homo sapiens, UniProt P21964); experiment: COMT inhibition assay (HTRF, production of S-adenosyl homocysteine); type: biochemical; details: recombinant human COMT, HTRF SAH production; MB-COMT or S-COMT not stated for Table 1
T1 construct: M51A variant) was expressed in HEK 293F cells
T1 sequence (P21964 52-271 limits assumed): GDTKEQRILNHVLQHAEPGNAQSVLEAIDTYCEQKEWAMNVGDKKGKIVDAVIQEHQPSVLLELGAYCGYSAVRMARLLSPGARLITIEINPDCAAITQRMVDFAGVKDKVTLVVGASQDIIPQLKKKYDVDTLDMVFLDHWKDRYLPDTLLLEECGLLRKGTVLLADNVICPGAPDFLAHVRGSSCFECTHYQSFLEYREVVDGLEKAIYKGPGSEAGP
Description: The ability of compounds to inhibit the activity of catechol-O-methyltransferase (COMT) was determined by a homogenous time-resolved fluorescent (HTRF) assay (Lina et al, 2012; kit from CisBio, Codolet, France). This assay measures the production of S-adenosyl homocysteine (SAH) from the methyl donor S-adenosyl methionine. Recombinant human membrane bound COMT (MB-COMT; M51A variant) was expressed in HEK 293F cells using 293Fectin (Life Technologies, Gent, Belgium) and membranes prepared. The membranes were re-suspended in buffer (20 mM Tris/HCl pH 7; 10 mM glycerol; 2 mM MgCl2; 10 mM NaCl), aliquoted and stored at −80° C. Recombinant human soluble COMT(S-COMT), Va1158 variant and a hexa-His tag on the N-terminus, was purified using Ni-NTA chromatography, the His tag removed and stored in buffer as above.
For the human MB-COMT assay, membranes (62 ng/well) were incubated with SAM (20 μM final, CisBio) and dopamine (1.5 μM final; Sigma H8502, Diegem, Belgium) in the presence or absence of varying concentrations (typically 10 concentrations ranging from 10 μM to 0.1 nM) of compound for 40 min at 37° C. in 384-well microtitre plates (10 μl per well final volume). The reaction was terminated by the addition of acylation buffer and the amount of SAH produced determined according to manufacturer's instructions. Specific inhibition as that inhibited by a high concentration of tolcapone (10 μM; synthesised at UCB) and all experiments were validated using a control curve to tolcapone.
The human S-COMT assay was performed as above except that 0.15 ng enzyme/well was incubated with SAM (20 μM final) and dopamine (100 μM final) for 15 min at 37° C. and SAH production determined.
HTRF readings were performed using a Perkin Elmer Envision and results expressed as concentration of SAH produced using a standard curve. Results were analysed using non-linear regression to the 4-parameter logistic equation and pIC50 (−log 10 concentration of drug which inhibits enzyme activity/SAH production by 50%) determined.

Structure (SMILES)	Activity range (pIC50, COMT inhibition)
Cc1cccc(N2CCC(S(=O)(=O)c3ccc(O)c4ncccc34)CC2)c1C [Example 39, 5-[[1-(2,3-dimethylphenyl)-4-piperidyl]sulfonyl]quinolin-8-ol]	+++ (a pIC50 of above about 7)
O=S(=O)(c1ccc(O)c2ncccc12)N1CCc2ccccc2C1 [Example 40, 5-(3,4-dihydro-1H-isoquinolin-2-ylsulfonyl)quinolin-8-ol]	+++ (a pIC50 of above about 7)
O=S(=O)(c1ccc(O)c2ncccc12)N1CCN(c2ccccc2)CC1 [Example 41, 5-(4-phenylpiperazin-1-yl)sulfonylquinolin-8-ol]	++ (a pIC50 of from about great than 6 to 7)
COc1cccc(CN(C)S(=O)(=O)c2ccc(O)c3ncccc23)c1 [Example 42, 8-hydroxy-N-[(3-methoxyphenyl)methyl]-N-methyl-quinoline-5-sulfonamide]	+++ (a pIC50 of above about 7)
O=S(=O)(c1ccc(O)c2ncccc12)N1CCN(Cc2ccccc2)CC1 [Example 43, 5-(4-benzylpiperazin-1-yl)sulfonylquinolin-8-ol]	+++ (a pIC50 of above about 7)
Cc1ccc(CNS(=O)(=O)c2ccc(O)c3ncccc23)cc1 [Example 44, 8-hydroxy-N-(4-methylbenzyl)quinoline-5-sulfonamide]	++ (a pIC50 of from about great than 6 to 7)
CN(Cc1ccccc1)S(=O)(=O)c1ccc(O)c2ncccc12 [Example 45, N-benzyl-8-hydroxy-N-methylquinoline-5-sulfonamide]	+++ (a pIC50 of above about 7)
Cc1ccc(N(C)S(=O)(=O)c2ccc(O)c3ncccc23)cc1 [Example 46, 8-hydroxy-N-(4-methylphenyl)-N-methylquinoline-5-sulfonamide]	++ (a pIC50 of from about great than 6 to 7)
O=S(=O)(c1ccc(O)c2ncccc12)N1Cc2ccccc2C1 [Example 47, 5-isoindolin-2-ylsulfonylquinolin-8-ol]	+++ (a pIC50 of above about 7)
CN(CCc1ccccc1)S(=O)(=O)c1ccc(O)c2ncccc12 [Example 48, 8-hydroxy-N-methyl-N-phenethyl-quinoline-5-sulfonamide]	+++ (a pIC50 of above about 7)
CN(Cc1ccc(F)cc1)S(=O)(=O)c1ccc(O)c2ncccc12 [Example 49, N-[(4-fluorophenyl)methyl]-8-hydroxy-N-methyl-quinoline-5-sulfonamide]	+++ (a pIC50 of above about 7)
C[C@H](c1ccccc1)N(C)S(=O)(=O)c1ccc(O)c2ncccc12 [Example 50, 8-hydroxy-N-methyl-N-[(1R)-1-phenylethyl]quinoline-5-sulfonamide]	+++ (a pIC50 of above about 7)
C[C@@H](c1ccccc1)N(C)S(=O)(=O)c1ccc(O)c2ncccc12 [Example 51, 8-hydroxy-N-methyl-N-[(1S)-1-phenylethyl]quinoline-5-sulfonamide]	+++ (a pIC50 of above about 7)
CN(Cc1ccccc1F)S(=O)(=O)c1ccc(O)c2ncccc12 [Example 52, N-[(2-fluorophenyl)methyl]-8-hydroxy-N-methyl-quinoline-5-sulfonamide]	+++ (a pIC50 of above about 7)
CN(Cc1cccc(Cl)c1)S(=O)(=O)c1ccc(O)c2ncccc12 [Example 53, N-[(3-chlorophenyl)methyl]-8-hydroxy-N-methyl-quinoline-5-sulfonamide]	+++ (a pIC50 of above about 7)
CN(Cc1cccnc1)S(=O)(=O)c1ccc(O)c2ncccc12 [Example 54, 8-hydroxy-N-methyl-N-(3-pyridylmethyl)quinoline-5-sulfonamide]	+++ (a pIC50 of above about 7)
CN(Cc1ccc2ccccc2c1)S(=O)(=O)c1ccc(O)c2ncccc12 [Example 55, 8-hydroxy-N-methyl-N-(2-naphthylmethyl)quinoline-5-sulfonamide]	++ (a pIC50 of from about great than 6 to 7)

Structure (SMILES)	Activity range (pIC50, COMT inhibition)
CCN(Cc1ccccc1)S(=O)(=O)c1ccc(O)c2ncccc12 [Example 56, N-benzyl-N-ethyl-8-hydroxy-quinoline-5-sulfonamide]	+++ (a pIC50 of above about 7)
CN(C)CCN(Cc1ccccc1)S(=O)(=O)c1ccc(O)c2ncccc12 [Example 57, N-benzyl-N-(2-dimethylaminoethyl)-8-hydroxy-quinoline-5-sulfonamide]	++ (a pIC50 of from about great than 6 to 7)
O=S(=O)(c1ccc(O)c2ncccc12)N1CCCC1c1ccccc1 (stereo not drawn) [Example 58, 5-(2-phenylpyrrolidin-1-yl)sulfonylquinolin-8-ol]	+++ (a pIC50 of above about 7)
O=S(=O)(c1ccc(O)c2ncccc12)N1CCCC1 [Example 59, 5-pyrrolidin-1-ylsulfonylquinolin-8-ol]	+++ (a pIC50 of above about 7)
CN1CCN(S(=O)(=O)c2ccc(O)c3ncccc23)CC1 [Example 60, 5-(4-methylpiperazin-1-yl)sulfonylquinolin-8-ol]	++ (a pIC50 of from about great than 6 to 7)
O=S(=O)(c1ccc(O)c2ncccc12)N1CCCCC1c1ccccc1 (stereo not drawn) [Example 61, 5-[(2-phenyl-1-piperidyl)sulfonyl]quinolin-8-ol]	++ (a pIC50 of from about great than 6 to 7)
O=S(=O)(c1ccc(O)c2ncccc12)N1CCC(c2ccc(F)cc2)C1 (stereo not drawn) [Example 62, 5-(3-(4-fluorophenyl)pyrrolidin-1-yl)sulfonylquinolin-8-ol]	+++ (a pIC50 of above about 7)
O=S(=O)(c1ccc(O)c2ncccc12)N1CCCCC1 [Example 63, 5-(piperidin-1-yl)sulfonylquinolin-8-ol]	+++ (a pIC50 of above about 7)
O=S(=O)(c1ccc(O)c2ncccc12)N1CCOCC1 [Example 64, 5-(4-morpholin-1-yl)sulfonylquinolin-8-ol]	++ (a pIC50 of from about great than 6 to 7)
CN(Cc1ccc(C(F)(F)F)cc1)S(=O)(=O)c1ccc(O)c2ncccc12 [Example 65, N-[(4-(trifluoromethyl)phenyl)methyl]-8-hydroxy-N-methyl-quinoline-5-sulfonamide]	+++ (a pIC50 of above about 7)
CCN(Cc1ccncc1)S(=O)(=O)c1ccc(O)c2ncccc12 [Example 66, N-ethyl-8-hydroxy-N-(4-pyridylmethyl)quinoline-5-sulfonamide]	++ (a pIC50 of from about great than 6 to 7)
O=S(=O)(c1ccc(O)c2ncccc12)N1CCc2cccnc2C1 [Example 67, 5-(6,8-dihydro-5H-1,7-naphthyridin-7-ylsulfonyl)quinolin-8-ol]	+++ (a pIC50 of above about 7)
CCN(CC)S(=O)(=O)c1ccc(O)c2ncccc12 [Example 68, N,N-diethyl-8-hydroxy-quinoline-5-sulfonamide]	++ (a pIC50 of from about great than 6 to 7)
O=S(=O)(c1ccc(O)c2ncccc12)N1CCN(c2ccc(Cl)cn2)CC1 [Example 69, 5-[4-(5-chloro-2-pyridyl)piperazin-1-yl]sulfonylquinolin-8-ol]	++ (a pIC50 of from about great than 6 to 7)
O=S(=O)(c1ccc(O)c2ncccc12)N1C[C@@H](F)[C@H](F)C1 [Example 70, 5-[(3R,4R)-3,4-difluoropyrrolidin-1-yl]sulfonylquinolin-8-ol]	+++ (a pIC50 of above about 7)
Cc1ccccc1C1CCCN1S(=O)(=O)c1ccc(O)c2ncccc12 (stereo not drawn) [Example 71, 5-[2-(o-tolyl)pyrrolidin-1-yl]sulfonylquinolin-8-ol]	+++ (a pIC50 of above about 7)
